From ChEMBL document CHEMBL5505979, “Novel aminothiazoximone-corbelled ethoxycarbonylpyrimidones with antibiofilm activity to conquer Gram-negative bacteria through potential multitargeting effects” (Eur J Med Chem, 2024)
In brackets after ≈: the same amount, converted by molar mass. Activity calls are given as the source filed them. The calls are words filed in the database; no cut-off is given here.

How the values were obtained:
Acinetobacter baumannii [1] = assay: Anti-bacterial activity against Acinetobacter baumannii assessed as growth inhibition by measuring optical density measured at 1/2 time of MIC in presence of 1/8 times of MIC of norfloxacin by Checkerboard assay (reference value: 0.152); assay type: functional
Escherichia coli = assay: Anti-bacterial activity against Escherichia coli JM109 assessed as inhibition of bacterial growth; assay type: functional
Acinetobacter baumannii [2] = assay: Anti-bacterial activity against Acinetobacter baumannii assessed as growth inhibition by measuring optical density measured at 1 time of MIC in presence of 1/4 times of MIC of norfloxacin by Checkerboard assay (reference value: 0.157); assay type: functional
Acinetobacter baumannii [3] = assay: Anti-bacterial activity against Acinetobacter baumannii assessed as bacterial mortality at 1 to 4 MIC concentration by propidium iodide based fluorescence microscopy relative to control; assay type: functional, organism-based
Pseudomonas aeruginosa = assay: Anti-bacterial activity against Pseudomonas aeruginosa ST235 assessed as inhibition of bacterial growth; assay type: functional; details: Pseudomonas aeruginosa, ST235; read-out: MIC
Cell membrane = assay: Induction of physical destruction of cell membrane in Escherichia coli ATCC 25922 assessed as leakage of nucleic acid by measuring absorbance of 260 nm at 1/4 to 8 times of MIC concentration; assay type: cell membranes
Acinetobacter baumannii [4] = assay: Anti-bacterial activity against Acinetobacter baumannii assessed as growth inhibition by measuring optical density measured at 1 time of MIC in presence of 1 times of MIC of norfloxacin by Checkerboard assay (reference value: 0.157); assay type: functional
Acinetobacter baumannii [5] = assay: Induction of ROS accumulation in Acinetobacter baumannii assessed as decrease in GSH activity by measuring reduced GSH to convert to oxidized GSSG at 1/4 to 2 times of MIC by Ellmans method; assay type: functional, organism-based

In the case of CCCCc1nc(Cl)c(C2NC(=O)NC(CN3CCN(C(=O)/C(=N/OC)c4csc(N)n4)CC3)=C2C(=O)OCC)[nH]1 (stereo not drawn), the OD (Acinetobacter baumannii [1]) is reported as 0.117, the MIC (Escherichia coli) is reported as 13 µM (≈ 7.91 µg/mL) and the OD (Acinetobacter baumannii [2]) is reported as 0.109. The Activity (Acinetobacter baumannii [3]) was “Active”, the MIC (Pseudomonas aeruginosa) was 26 µM (≈ 15.8 µg/mL) and the Activity (Cell membrane) was “Active”. For the same compound, the OD (Acinetobacter baumannii [4]) was 0.052 and the Activity (Acinetobacter baumannii [5]) was “Active”.
